Data taken from ChEMBL document CHEMBL3885861, “Open TG-GATES”.

Organism: Rattus norvegicus
Experiment: Open TG-GATES - Regimen: Single
Format: toxicity, organism-based, Sprague-Dawley
Design: regimen Single, gender Male, age 6 weeks
Conditions: in vivo, po, 30 mg/kg, route gavage, dose level High; for APTT / Bas / Eos / Fbg / Hb / Ht / Lym / MCH / MCHC / MCV / Mono / Neu / PT / Plat / RBC / Ret / WBC: tissue Blood; for KIDNEY_L / KIDNEY_R / KIDNEY_TOTAL: tissue Kidney; for LIVER: tissue Liver; for A/G / ALP / ALT / AST / BUN / CRE / Ca / Cl / DBIL / GLC / IP / K / LDH / Na / PL / RALB / TBIL / TC / TG / TP / gamma-GTP: tissue Plasma

`CN(C)CCC(c1ccc(Cl)cc1)c1ccccn1` (configuration not stated) [CHLORPHENIRAMINE] was tested, and the TERMINAL_BW (3 h) was 197.2 g, the APTT (3 h) was 16.3 s and the Bas (3 h) was 0%. The Eos (3 h) was 0.8%, the Fbg (3 h) was 287.6 mg/dL and the Hb (3 h) was 13.5 g/dL. For the same compound, the Ht (3 h) was 42.6%, the Lym (3 h) was 74.2% and the MCH (3 h) was 21.2 pg. The MCHC (3 h) was 31.8%, the MCV (3 h) was 66.5 fL and the Mono (3 h) was 3.4%. For the same compound, the Neu (3 h) was 21%, the PT (3 h) was 14.8 s and the Plat (3 h) was 128.4 x10_4/uL. The RBC (3 h) was 640.8 x10_4/ul, the Ret (3 h) was 10.2% and the WBC (3 h) was 67.1 x10_2/uL. For the same compound, the KIDNEY_L (3 h) was 0.9 g, the KIDNEY_R (3 h) was 0.9 g and the KIDNEY_TOTAL (3 h) was 1.7 g. For the same compound, the LIVER (3 h) was 9 g, the A/G (3 h) was 0.9 and the ALP (3 h) was 1548.6 IU/L. The ALT (3 h) was 43.6 IU/L, the AST (3 h) was 79.2 IU/L and the BUN (3 h) was 8.4 mg/dL. The CRE (3 h) was 0.1 mg/dL, the Ca (3 h) was 10.5 mg/dL and the Cl (3 h) was 108.8 meq/L. The DBIL (3 h) was 0.008 mg/dL, the GLC (3 h) was 183.6 mg/dL and the IP (3 h) was 10 mg/dL. For the same compound, the K (3 h) was 4.1 meq/L, the LDH (3 h) was 139.4 IU/L and the Na (3 h) was 143.4 meq/L. It also gave a PL (3 h) of 146.6 mg/dL, an RALB (3 h) of 2.6 g/dL and a TBIL (3 h) of 0.046 mg/dL. It also gave a TC (3 h) of 79 mg/dL, a TG (3 h) of 59 mg/dL and a TP (3 h) of 5.5 g/dL. For the same compound, the gamma-GTP (3 h) was 1.2 IU/L, the TERMINAL_BW (6 h) was 191.8 g and the APTT (6 h) was 24.9 s. For the same compound, the Bas (6 h) was 0%, the Eos (6 h) was 0.8% and the Fbg (6 h) was 302 mg/dL. The Hb (6 h) was 13.8 g/dL, the Ht (6 h) was 42.4% and the Lym (6 h) was 73.2%. The MCH (6 h) was 20.9 pg, the MCHC (6 h) was 32.5% and the MCV (6 h) was 64.2 fL. The Mono (6 h) was 3.4%, the Neu (6 h) was 21.8% and the PT (6 h) was 14.7 s. For the same compound, the Plat (6 h) was 130.7 x10_4/uL, the RBC (6 h) was 659.8 x10_4/ul and the Ret (6 h) was 8.9%. The WBC (6 h) was 76.3 x10_2/uL, the KIDNEY_L (6 h) was 0.8 g and the KIDNEY_R (6 h) was 0.8 g. The KIDNEY_TOTAL (6 h) was 1.6 g, the LIVER (6 h) was 8.2 g and the A/G (6 h) was 0.9. It also gave an ALP (6 h) of 1166.8 IU/L, an ALT (6 h) of 37.4 IU/L and an AST (6 h) of 72.4 IU/L. For the same compound, the BUN (6 h) was 7.6 mg/dL, the CRE (6 h) was 0.1 mg/dL and the Ca (6 h) was 10.5 mg/dL. For the same compound, the Cl (6 h) was 108 meq/L, the DBIL (6 h) was 0.006 mg/dL and the GLC (6 h) was 181 mg/dL. It also gave an IP (6 h) of 10.2 mg/dL, a K (6 h) of 4.4 meq/L and an LDH (6 h) of 126 IU/L. It also gave a Na (6 h) of 142.4 meq/L, a PL (6 h) of 138.4 mg/dL and an RALB (6 h) of 2.5 g/dL. The TBIL (6 h) was 0.042 mg/dL, the TC (6 h) was 83.6 mg/dL and the TG (6 h) was 35 mg/dL. It also gave a TP (6 h) of 5.4 g/dL, a gamma-GTP (6 h) of 1.4 IU/L and a TERMINAL_BW (9 h) of 189.4 g. The APTT (9 h) was 19.9 s, the Bas (9 h) was 0% and the Eos (9 h) was 1%. For the same compound, the Fbg (9 h) was 317 mg/dL, the Hb (9 h) was 13.6 g/dL and the Ht (9 h) was 42.2%. The Lym (9 h) was 73.8%, the MCH (9 h) was 20.7 pg and the MCHC (9 h) was 32.3%. The MCV (9 h) was 64.2 fL, the Mono (9 h) was 2.6% and the Neu (9 h) was 22.2%. For the same compound, the PT (9 h) was 14.9 s, the Plat (9 h) was 115 x10_4/uL and the RBC (9 h) was 656.4 x10_4/ul. For the same compound, the Ret (9 h) was 9.1%, the WBC (9 h) was 68.4 x10_2/uL and the KIDNEY_L (9 h) was 0.9 g. For the same compound, the KIDNEY_R (9 h) was 0.9 g, the KIDNEY_TOTAL (9 h) was 1.7 g and the LIVER (9 h) was 8 g. For the same compound, the A/G (9 h) was 0.9, the ALP (9 h) was 1297.6 IU/L and the ALT (9 h) was 35.2 IU/L. The AST (9 h) was 71.8 IU/L, the BUN (9 h) was 7.4 mg/dL and the CRE (9 h) was 0.1 mg/dL. It also gave a Ca (9 h) of 10.2 mg/dL, a Cl (9 h) of 106.4 meq/L and a DBIL (9 h) of 0.008 mg/dL. The GLC (9 h) was 171.8 mg/dL, the IP (9 h) was 10.4 mg/dL and the K (9 h) was 4 meq/L. It also gave an LDH (9 h) of 95 IU/L, a Na (9 h) of 142.4 meq/L and a PL (9 h) of 145 mg/dL. It also gave an RALB (9 h) of 2.5 g/dL, a TBIL (9 h) of 0.056 mg/dL and a TC (9 h) of 84.2 mg/dL. It also gave a TG (9 h) of 45 mg/dL, a TP (9 h) of 5.4 g/dL and a gamma-GTP (9 h) of 1.2 IU/L. It also gave a TERMINAL_BW (24 h) of 198.3 g, an APTT (24 h) of 17 s and a Bas (24 h) of 0.2%. It also gave an Eos (24 h) of 1.2%, a Fbg (24 h) of 324.6 mg/dL and a Hb (24 h) of 13.6 g/dL. For the same compound, the Ht (24 h) was 41.8%, the Lym (24 h) was 79.8% and the MCH (24 h) was 20.8 pg. It also gave an MCHC (24 h) of 32.6%, an MCV (24 h) of 63.8 fL and a Mono (24 h) of 2.6%. The Neu (24 h) was 15.6%, the PT (24 h) was 14.8 s and the Plat (24 h) was 114.6 x10_4/uL. The RBC (24 h) was 655.4 x10_4/ul, the Ret (24 h) was 7.8% and the WBC (24 h) was 93.8 x10_2/uL. The KIDNEY_L (24 h) was 0.9 g, the KIDNEY_R (24 h) was 0.9 g and the KIDNEY_TOTAL (24 h) was 1.8 g. It also gave an LIVER (24 h) of 8 g, an A/G (24 h) of 0.9 and an ALP (24 h) of 1572.4 IU/L. The ALT (24 h) was 45.8 IU/L, the AST (24 h) was 78.4 IU/L and the BUN (24 h) was 12.4 mg/dL. For the same compound, the CRE (24 h) was 0.2 mg/dL, the Ca (24 h) was 10.8 mg/dL and the Cl (24 h) was 109 meq/L. The DBIL (24 h) was 0.012 mg/dL, the GLC (24 h) was 185 mg/dL and the IP (24 h) was 7.9 mg/dL. The K (24 h) was 4.6 meq/L, the LDH (24 h) was 120.4 IU/L and the Na (24 h) was 142.4 meq/L. The PL (24 h) was 145.4 mg/dL, the RALB (24 h) was 2.6 g/dL and the TBIL (24 h) was 0.046 mg/dL. It also gave a TC (24 h) of 89.4 mg/dL, a TG (24 h) of 41.4 mg/dL and a TP (24 h) of 5.6 g/dL. For the same compound, the gamma-GTP (24 h) was 1.4 IU/L.
